In patent US20250049679A1, “FORMULATIONS OF ERIODICTYOL” (DEBUT BIOTECHNOLOGY, INC., priority 2023, published 2025):
Entries after “also recorded” stand apart in the source; their conditions may differ.

Experiments:
[1] = target: T1, human neutrophil elastase (Homo sapiens, UniProt P08246); assay: Elastase enzyme inhibition; assay type: biochemical
T1 sequence (P08246 30-267): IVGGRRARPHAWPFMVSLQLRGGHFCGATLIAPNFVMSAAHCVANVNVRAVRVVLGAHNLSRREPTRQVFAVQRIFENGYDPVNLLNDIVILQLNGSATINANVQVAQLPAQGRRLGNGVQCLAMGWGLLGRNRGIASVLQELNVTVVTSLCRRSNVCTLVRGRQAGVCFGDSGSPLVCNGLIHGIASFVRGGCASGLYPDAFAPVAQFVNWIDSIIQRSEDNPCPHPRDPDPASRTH
Method: The assay was conducted to evaluate the elastase enzyme inhibition activity of compositions comprising eriodictyol. Neutrophil infiltration and neutrophil elastase are both increased in the skin in response to UV stress. […] Therefore, inhibition of this enzyme, particularly in combination with antioxidant activity, is effective in delaying wrinkle development and aiding in maintaining skin integrity. This assay is measures release of 4-nitroaniline from an Me-Suc-[…] by human neutrophil elastase and can be quantified at 405 nm by comparing to solvent control.

TRPV1 receptors = TRPV1 receptors (Homo sapiens, UniProt Q8NER1); details: acting on TRPV1 receptors; Deng et al. 2020; cited from earlier work
TRPV1 receptors, sequence (Q8NER1 whole entry): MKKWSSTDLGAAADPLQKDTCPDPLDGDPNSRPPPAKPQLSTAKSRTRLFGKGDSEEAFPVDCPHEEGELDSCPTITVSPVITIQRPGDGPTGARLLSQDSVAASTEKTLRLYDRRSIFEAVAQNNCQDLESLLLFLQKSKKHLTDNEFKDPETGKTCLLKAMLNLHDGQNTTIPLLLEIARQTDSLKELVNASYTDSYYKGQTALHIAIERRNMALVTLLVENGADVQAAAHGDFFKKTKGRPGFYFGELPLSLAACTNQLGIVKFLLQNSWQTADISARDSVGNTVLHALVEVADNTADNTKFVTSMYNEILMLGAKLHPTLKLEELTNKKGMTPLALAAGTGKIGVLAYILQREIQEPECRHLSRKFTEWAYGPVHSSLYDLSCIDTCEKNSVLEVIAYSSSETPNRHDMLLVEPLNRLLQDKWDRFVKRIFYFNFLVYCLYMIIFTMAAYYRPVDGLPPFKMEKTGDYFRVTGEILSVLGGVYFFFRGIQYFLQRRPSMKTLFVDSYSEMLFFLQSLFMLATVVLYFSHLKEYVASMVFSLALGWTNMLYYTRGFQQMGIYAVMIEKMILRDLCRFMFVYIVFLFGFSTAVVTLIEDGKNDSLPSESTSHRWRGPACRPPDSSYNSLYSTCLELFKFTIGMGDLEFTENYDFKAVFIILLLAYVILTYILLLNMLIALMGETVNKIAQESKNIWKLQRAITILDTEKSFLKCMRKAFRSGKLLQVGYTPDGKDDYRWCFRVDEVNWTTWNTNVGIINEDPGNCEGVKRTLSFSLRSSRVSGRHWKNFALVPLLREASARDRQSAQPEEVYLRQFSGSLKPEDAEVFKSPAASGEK

[2] = Glycation inhibition assay; assay type: biochemical; details: for % Enzyme Inhibition: glycation
Method: The assay was conducted to evaluate the glycation inhibition activity of compositions comprising eriodictyol. Nonenzymatic glycation can occur when glucose reacts with proteins, forming a Schiff base intermediate that subsequently undergoes Amadori rearrangement to form glycosylated proteins, when they react with skin proteins to form Advanced Glycation End products (AGE). AGE formation can result in loss of skin elasticity and impaired cellular function. The glycation inhibition ability of a compound is measured by change in fluorescence at excitation/emission of 360 nm/420 nm relative to solvent control.

[3] = Stability of eriodictyol in dimethyl isosorbide; assay type: physicochemical
Text: Thus, the compositions of the invention will also be stable for storage for at least 2 years under ambient conditions.

Nrf2/HO-1 pathway = details: mice, acting on the Nrf2/HO-1 pathway; Li et al. 2022; cited from earlier work
macrophage cells = details: cited from earlier work
tyrosinase = tyrosinase (Mus musculus, UniProt P11344); details: cited from earlier work
tyrosinase, sequence (P11344 19-533): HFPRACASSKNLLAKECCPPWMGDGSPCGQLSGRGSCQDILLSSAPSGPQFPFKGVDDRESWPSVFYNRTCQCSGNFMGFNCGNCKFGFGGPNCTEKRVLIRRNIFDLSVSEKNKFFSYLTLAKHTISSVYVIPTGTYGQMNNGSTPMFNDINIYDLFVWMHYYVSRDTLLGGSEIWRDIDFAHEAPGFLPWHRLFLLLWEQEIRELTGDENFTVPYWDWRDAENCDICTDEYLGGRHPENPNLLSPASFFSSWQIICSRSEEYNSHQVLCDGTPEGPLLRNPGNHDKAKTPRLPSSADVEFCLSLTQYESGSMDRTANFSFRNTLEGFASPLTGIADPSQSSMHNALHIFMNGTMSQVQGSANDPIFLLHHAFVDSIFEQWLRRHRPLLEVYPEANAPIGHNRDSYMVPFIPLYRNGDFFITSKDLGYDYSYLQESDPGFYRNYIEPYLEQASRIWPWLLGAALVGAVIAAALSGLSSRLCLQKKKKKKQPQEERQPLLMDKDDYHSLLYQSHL

melanoma cells = details: cited from earlier work
ICR mice = details: mouse skin; Park et al. 2013; cited from earlier work
[4] = ABTS antioxidant assay (aqueous medium); assay type: biochemical; details: for % Radical Inhibition: ABTS
Text: ABTS+ solution is generated as a free radical and used to measure relative ability of a compound to scavenge free radicals. Reduction of the absorbance at 734 nm was standardized to solvent control as an indication of ABTS+ scavenging.

[5] = Solubility of eriodictyol in solvents; assay type: physicochemical
[6] = DPPH antioxidant activity assay (organic medium); assay type: biochemical; details: for % Radical Inhibition: DPPH
Text: The 2,2-diphenyl-1-picrylhydrazyl (DPPH) antioxidant assay is designed to evaluate the antioxidant activity of compositions comprising eriodictyol in an organic medium. […] In the presence of an antioxidant DPPH is reduced, resulting in the formation of a colorless solution. Reduction of absorbance at 517 nm is standardized to solvent control as an indication of DPPH scavenging.

Keratinocytes = details: skin; cited from earlier work
[7] = system: MMP10 (matrix metallopeptidase 10); assay: Gene modulation; assay type: cell-based
Text: (§1) Table 9, provided below, incorporates the gene modulation data for formulations comprising eriodictyol.

IL6 (Interleukin 6) = assay: Gene modulation; assay type: cell-based
Text: as §1

[8] = system: PPFIA4 (PTPRF interacting protein alpha 4); assay: Gene modulation; assay type: cell-based
Text: as §1

FN1 (fibronectin 1) = assay: Gene modulation; assay type: cell-based
Text: as §1

[9] = system: MKI67 (marker of proliferation Ki-67); assay: Gene modulation; assay type: cell-based
Text: as §1

[10] = system: TFPI2 (tissue factor pathway inhibitor 2); assay: Gene modulation; assay type: cell-based
Text: as §1

[11] = system: TNF (Tumor Necrosis Factor); assay: Gene modulation; assay type: cell-based
Text: as §1

[12] = system: TOP2A (DNA topoisomerase II alpha); assay: Gene modulation; assay type: cell-based
Text: as §1

THBS1 (thrombospondin 1) = assay: Gene modulation; assay type: cell-based
Text: as §1

IL24 (Interleukin 24) = assay: Gene modulation; assay type: cell-based
Text: as §1

FST (follistatin) = assay: Gene modulation; assay type: cell-based
Text: as §1

[13] = system: MMP3 (Matrix Metallopeptidase 3); assay: Gene modulation; assay type: cell-based
Text: as §1

[14] = system: KCTD4 (potassium channel tetramerization domain containing 4); assay: Gene modulation; assay type: cell-based
Text: as §1

[15] = system: ALDH1A3 (aldehyde dehydrogenase 1 family member A3); assay: Gene modulation; assay type: cell-based
Text: as §1

IL23A (Interleukin 23) = assay: Gene modulation; assay type: cell-based
Text: as §1

[16] = system: SLC13A5 (Solute carrier family 13 member 5); assay: Gene modulation; assay type: cell-based
Text: as §1

[17] = system: MMP9 (Matrix Metallopeptidase 9); assay: Gene modulation; assay type: cell-based
Text: as §1

[18] = system: ATP12A (ATPase H+/K+ transporting non-gastric alpha2 subunit); assay: Gene modulation; assay type: cell-based
Text: as §1

[19] = system: MMP1 (matrix metallopeptidase 1); assay: Gene modulation; assay type: cell-based
Text: as §1

O=C1C[C@@H](c2ccc(O)c(O)c2)Oc2cc(O)cc(O)c21 [eriodictyol]
Lowest concentration inhibiting elastase enzyme activity [1]: 0.008 % w/w | IC50 elastase enzyme inhibition ([1]; calculated): 0.107 % w/w | inhibition at 0.008 % strength ([1]; elastase, eriodictyol 0.008 % w/w): 17.6% | inhibition at 0.04 % strength ([1]; elastase, eriodictyol 0.04 % w/w): 23.1% | inhibition at 0.2 % strength ([1]; elastase, eriodictyol 0.2 % w/w): 58.1% | Neuroinflammation and hypererythema (TRPV1 receptors): reduces neuroinflammation and relieves hypererythema | Lowest concentration inhibiting glycation [2]: 0.002 % w/w | IC50 glycation inhibition ([2]; calculated): 0.0088 % w/w | % Enzyme Inhibition ([2]; eriodictyol 0.002 % w/w): 38.43% | % Enzyme Inhibition ([2]; eriodictyol 0.007 % w/w): 86.18% | % Enzyme Inhibition ([2]; eriodictyol 0.022 % w/w): 90.26% | 30 day % remaining ([3]; 4 C.): 104.66% | 90 day % remaining ([3]; 4 C.): 97.15% | 30 day % remaining ([3]; 25 C.): 100.78% | 90 day % remaining ([3]; 25 C.): 91.72% | 180 day % remaining ([3]; 25 C.): 90.30% | 30 day % remaining ([3]; 40 C.): 93.53% | 90 day % remaining ([3]; 40 C.): 98.06% | 30 day % remaining ([3]; 50 C.): 95.73% | Cognitive decline (Nrf2/HO-1 pathway): decreases cognitive decline | Anti-inflammatory activity: inflammatory markers (macrophage cells): decrease inflammatory markers | Tyrosinase inhibition (tyrosinase): inhibiting tyrosinase | Melanogenesis (melanoma cells): decreases melanogenesis | Symptoms of atopic dermatitis (ICR mice): alleviating symptoms of atopic dermatitis | % Radical Inhibition ([4]; eriodictyol 0.00016 % w/w): 11.00% | % Radical Inhibition ([4]; eriodictyol 0.0008 % w/w): 58.72% | % Radical Inhibition ([4]; eriodictyol 0.004 % w/w): 92.97% | IC50 antioxidant activity ([4]; aqueous solvent system, calculated): 0.00062 % w/w | Lowest concentration demonstrating antioxidant activity ([4]; aqueous systems): 0.00016 % w/w | Solubility (% w/w) ([5]; in Caprylic/Capric Triglyceride): only minimally soluble; also recorded: Not soluble | Solubility (% w/w) ([5]; in Helianthus Annuus (Sunflower) Seed Oil): insoluble; also recorded: Not soluble | Solubility (% w/w) ([5]; in Pentylene Glycol): only minimally soluble; also recorded: Not soluble | Solubility ([5]; in oil): poorly soluble or insoluble | Solubility ([5]; in water): poorly soluble or insoluble | % Radical Inhibition ([6]; eriodictyol 0.00007 % w/w): 21.22% | % Radical Inhibition ([6]; eriodictyol 0.00046 % w/w): 81.45% | % Radical Inhibition ([6]; eriodictyol 0.00278 % w/w): 81.95% | IC50 antioxidant activity ([6]; organic solvent system, calculated): 0.0002 % w/w | Lowest concentration demonstrating antioxidant activity ([6]; organic solvent systems): 0.00007 % w/w | Protection from UVA-induced photodamage and apoptosis (Keratinocytes): protecting skin from UVA-induced photodamage and apoptosis | Treatment (gene expression level) ([7]; MMP10): 106.9 | Fold Change ([7]; MMP10, treatment vs control): −24.3 | Treatment (gene expression level) (IL6 (Interleukin 6); IL6): 1.2 | Fold Change (IL6 (Interleukin 6); IL6, treatment vs control): −19.7 | Treatment (gene expression level) ([8]; PPFIA4): 628.6 | Fold Change ([8]; PPFIA4, treatment vs control): 27.9 | Treatment (gene expression level) (FN1 (fibronectin 1); FN1): 146.9 | Fold Change (FN1 (fibronectin 1); FN1, treatment vs control): −12.1 | Treatment (gene expression level) ([9]; MKI67): 78.7 | Fold Change ([9]; MKI67, treatment vs control): −10.6 | Treatment (gene expression level) ([10]; TFPI2): 34.1 | Fold Change ([10]; TFPI2, treatment vs control): −17.1 | Treatment (gene expression level) [11]: 0.0 | Fold Change ([11]; treatment vs control): −256.0 | Treatment (gene expression level) [12]: 37.6 | Fold Change ([12]; treatment vs control): −18.4 | Treatment (gene expression level) (THBS1 (thrombospondin 1); THBS1): 344.3 | Fold Change (THBS1 (thrombospondin 1); THBS1, treatment vs control): −16.0 | Treatment (gene expression level) (IL24 (Interleukin 24); IL24): 1.2 | Fold Change (IL24 (Interleukin 24); IL24, treatment vs control): −73.5 | Treatment (gene expression level) (FST (follistatin)): 96.4 | Fold Change (FST (follistatin); treatment vs control): −9.8 | Treatment (gene expression level) ([13]; MMP3): 8.2 | Fold Change ([13]; MMP3, treatment vs control): −48.5 | Treatment (gene expression level) ([14]; KCTD4): 36.4 | Fold Change ([14]; KCTD4, treatment vs control): −14.9 | Treatment (gene expression level) ([15]; ALDH1A3): 168.0 | Fold Change ([15]; ALDH1A3, treatment vs control): −9.8 | Treatment (gene expression level) (IL23A (Interleukin 23)): 5.9 | Fold Change (IL23A (Interleukin 23); treatment vs control): −6.1 | Treatment (gene expression level) ([16]; SLC13A5): 5.9 | Fold Change ([16]; SLC13A5, treatment vs control): −13.9 | Treatment (gene expression level) ([17]; MMP9): 527.6 | Fold Change ([17]; MMP9, treatment vs control): −8.6 | Treatment (gene expression level) [18]: 76.4 | Fold Change ([18]; treatment vs control): −11.3 | Treatment (gene expression level) ([19]; MMP1): 972.9 | Fold Change ([19]; MMP1, treatment vs control): −11.3
